The values below come from ChEMBL document CHEMBL1126797 (J Med Chem, 1993).

A short description of series [1]: Number of metastases in K1735-M2 murine melanoma cells after subcutaneous administration on days1,4,6,8 at dose of 3 mg/kg. It counts as functional, Mus musculus.
Series [2] deals with Mus musculus. Kind of series: Relative survival in RAW117-H10 cells implanted mice in comparison to control at dose of 3 mg/kg. It counts as functional.
Series [3] concerns Mus musculus. Briefly: Relative survival in L1210 lymphoid leukemic mice after subcutaneous administration on days 1,4,6,8 at dose of 3 mg/kg. It counts as functional.
Series [4] is filed under the species Mus musculus. Briefly: Toxic dose in L1210 lymphoid leukemic mice. In kind it is toxicity, organism-based. The note with it: in vivo.
For series [5], the system named is Mus musculus. Briefly: Highest active dose in L1210 lymphoid leukemic mice at dose range of 2-4 mg/kg. It counts as functional.
Series [6] is filed under the species Mus musculus. Briefly: Percent median survival time of treated leukemic mice compared to control. In kind it is functional.
The subject of series [7] is L1210. Kind of series: Log of initial tumor cell population minus log of tumor cell population at end of treatment in L1210 lymphoid leukemic mice. It counts as functional, Mus musculus.
The species entered for series [8] is Mus musculus. Briefly: Number of L1210 lymphoid leukemic mice cured out of […]. It counts as functional.
Series [9] concerns Mus musculus. Kind of series: Highest active dose in L1210 lymphoid leukemic mice at range of 5-20 mg/kg. It counts as functional.
The species entered for series [10] is Mus musculus. Kind of series: Toxic dose to L1210 lymphoid leukemic mice. In kind it is toxicity, organism-based. The following applies: in vivo.
In series [11] the test system is Mus musculus. Kind of series: Highest active dose in L1210 lymphoid leukemic mice after ip injection on days 1 and 5 at dose of 10 mg/kg. It counts as functional. The note with it: route intraperitoneal.
Series [12] deals with T1, DNA topoisomerase 1 (Homo sapiens, UniProt P11387).
T1 sequence (P11387 whole entry): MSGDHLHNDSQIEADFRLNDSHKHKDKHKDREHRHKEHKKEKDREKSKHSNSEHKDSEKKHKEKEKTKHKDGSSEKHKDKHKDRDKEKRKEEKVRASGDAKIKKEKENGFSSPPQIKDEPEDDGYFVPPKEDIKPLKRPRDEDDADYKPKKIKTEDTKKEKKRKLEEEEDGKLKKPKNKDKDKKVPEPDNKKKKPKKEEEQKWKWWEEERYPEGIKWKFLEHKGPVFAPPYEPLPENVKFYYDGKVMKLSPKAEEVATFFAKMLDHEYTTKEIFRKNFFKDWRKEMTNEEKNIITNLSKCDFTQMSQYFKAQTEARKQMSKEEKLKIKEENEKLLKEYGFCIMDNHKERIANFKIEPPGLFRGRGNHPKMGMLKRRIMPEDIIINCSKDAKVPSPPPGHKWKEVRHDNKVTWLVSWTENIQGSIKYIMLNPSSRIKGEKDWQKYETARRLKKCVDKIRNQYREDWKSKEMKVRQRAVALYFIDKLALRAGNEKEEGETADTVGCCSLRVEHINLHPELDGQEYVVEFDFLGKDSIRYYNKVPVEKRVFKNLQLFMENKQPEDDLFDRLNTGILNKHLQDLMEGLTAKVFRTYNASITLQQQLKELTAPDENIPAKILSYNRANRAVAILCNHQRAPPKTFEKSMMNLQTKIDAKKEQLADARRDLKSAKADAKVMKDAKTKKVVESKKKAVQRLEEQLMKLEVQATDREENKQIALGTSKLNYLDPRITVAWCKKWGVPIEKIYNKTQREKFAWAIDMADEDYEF
Kind of series: Inhibition of Topoisomerase I by cleavage complex formation in intact human HL-60 cells. In kind it is cell-based.

Series [13] relates to L1210. Kind of series: Toxic dose in L1210 murine lymphoid leukemia after ip injection on days 1 and 5 at 10 mg/kg; NT means not toxic. It counts as toxicity, organism-based. Set-up: dose 10 mg/kg, route intraperitoneal. The following applies: mouse, in vivo.
Series [14] deals with Mus musculus. Briefly: Median survival time of treated/control animals x 100 after iv drug dosing on hours 1 and 5. In kind it is functional.
The subject of series [15] is Mus musculus. Briefly: Highest active dose in L1210 lymphoid leukemic mice after iv drug dosing on hours 1 and 5 at dose range of 2.5-5 mg/kg. It counts as functional.
Series [16] has as its system L1210. Kind of series: Log of initial tumor cell population minus log of tumor cell population at end of treatment after iv drug dosing on hours 1 and 5. It counts as functional, Mus musculus.
Series [17] relates to L1210. Briefly: Toxic dose in L1210 murine lymphoid leukemia after iv drug dosing on hours 1 and 5; NT means not toxic at 5 mg/Kg. It counts as toxicity, organism-based. The note with it: mouse, in vivo.
For series [18], the system named is L1210. Kind of series: Log of initial tumor cell population minus log of tumor cell population at end of treatment after ip injection on days 1 and 5. It counts as functional, Mus musculus.
For series [19], the system named is Mus musculus. Briefly: Median survival time of treated/control animals x 100 after ip injection on days 1 and 5. It counts as functional.
Series [20] concerns the target T1, DNA topoisomerase 1. Briefly: Inhibition of Topoisomerase I by cleavage complex formation in human HL-60 cells. In kind it is cell-based.
Series [21] relates to L1210. Kind of series: Log of initial tumor cell population minus log of tumor cell population at end of treatment after i.v. drug dosing on hours 1 and 5. In kind it is functional, Mus musculus.
For series [22], the system named is Mus musculus. Kind of series: Highest active dose in L1210 lymphoid leukemic mice after i.v. drug dosing on hours 1 and 5 at dose range of 1.25-20 mg/kg. In kind it is functional.
In series [23] the test system is Mus musculus. Kind of series: Number of L1210 mice cured after i.v. drug dosing on hours 1 and 5. It counts as functional.
The test system of series [24] is L1210. Briefly: Toxic dose in L1210 murine lymphoid leukemia after i.v. drug dosing on hours 1 and 5; NT means not toxic at 20 mg/kg. In kind it is toxicity, organism-based. Details: dose 20 mg/kg, route intravenous; call rule not given here. The following applies: mouse, in vivo, iv.
Series [25] has as its system Mus musculus. Kind of series: Highest active dose in L1210 lymphoid leukemic mice at range of 1.25-20 mg/kg after i.v. drug dosing on hours 1 and 5. It counts as functional.
For series [26], the system named is L1210. Briefly: Toxic dose in L1210 murine lymphoid leukemia at 20 mg/kg after i.v. drug dosing on hours 1 and 5; NT means not toxic. Details: dose 20 mg/kg, route intravenous. It counts as toxicity, organism-based. The following applies: mouse, in vivo, iv.
Series [27] relates to L1210. Kind of series: Toxic dose in L1210 murine lymphoid leukemia at dose of 20 mg/kg after i.v. drug dosing on hours 1 and 5; NT means not toxic. Details: dose 20 mg/kg, route intravenous. It counts as toxicity, organism-based. The following applies: mouse, in vivo, iv.
For series [28], the system named is Mus musculus. Kind of series: Median survival time of treated/control animals x 100 after i.v. drug dosing on hours 1 and 5. It counts as functional.
Series [29] concerns Mus musculus. Kind of series: Highest active dose in L1210 lymphoid leukemic mice at dose range of 10-40 mg/kg. In kind it is functional.
Series [30] concerns Mus musculus. Briefly: Highest active dose in L1210 lymphoid leukemic mice at dose of 5.3-12 mg/kg. In kind it is functional.

Take `CCC1(O)C(=O)OCc2c1cc1n(c2=O)Cc2cc3cc4c(cc3nc2-1)OCO4` (racemic): the Control in series [1] was found to be 65%. In addition, the T/C in the series on Mus musculus [2] was 1.04; with Mus musculus [3] it was 1.22; in the series listed under Mus musculus [6] it was 325%. This compound also yielded a Toxic dose in the series listed under Mus musculus [4] of 8 mg/kg. The compound also came in with a Highest active dose in the series on Mus musculus [5] of 2 mg/kg. Besides, the KE in the series on L1210 [7] was 5.97. For the same compound, the Cures in the series listed under Mus musculus [8] is 2.

Consider `CCC1(O)C(=O)OCc2c1cc1n(c2=O)Cc2cc3cc(Cl)ccc3nc2-1` (racemic), for which, in the series on Mus musculus [9], the Highest active dose came to 10 mg/kg. Moreover, the T/C in the series filed under Mus musculus [6] is recorded as 280%. Besides, the KE in the series with L1210 [7] came to 5.97. This compound gave a Cures in the series listed under Mus musculus [8] of 2. Also, in the series listed under Mus musculus [10], the Toxic dose stood at 40 mg/kg.

As for `CCC1(OC(=O)CN)C(=O)OCc2c1cc1n(c2=O)Cc2cc3c(N)cccc3nc2-1.Cl` (racemic), the results for the Highest active dose in the series on Mus musculus [11] and in the series on Mus musculus [15] were 10 mg/kg and 5 mg/kg, respectively. The IC50 (commonly the point on the concentration scale where inhibition reaches its midpoint) stood at 6800 nM at DNA topoisomerase 1 [12] and 5500 nM on DNA topoisomerase 1 [20]. The Toxic dose entry with L1210 [13] was “Non-toxic”; with L1210 [17], “Not toxic”. Moreover, the T/C in the series with Mus musculus [14] is listed as 168%; in the series with Mus musculus [19], 132%. Further, the values for the KE with L1210 [16] and in the series with L1210 [18] were 1.67 and -1, respectively.

In the case of `CCC1(OC(=O)CN)C(=O)OCc2c1cc1n(c2=O)Cc2cc3cc4c(cc3nc2-1)OCO4.Cl` (racemic), the half-inhibitory concentration (IC50) worked out at 2500 nM on DNA topoisomerase 1 [12] and 430 nM against DNA topoisomerase 1 [20]. Also, the KE with L1210 [21] worked out at 5.97. In the series on Mus musculus [22], the Highest active dose came to 10 mg/kg. The compound further yielded a Cures in the series with Mus musculus [23] of 3. Also, the Toxic dose result with L1210 [24] is given as “Not toxic”. The T/C in the series listed under Mus musculus [6] is on record as 236%.

The compound `CCC1(OC(=O)CN)C(=O)OCc2c1cc1n(c2=O)Cc2cc3cc(N)ccc3nc2-1.Cl` (racemic) had a KE in the series with L1210 [21] of more than 5.97. For the same compound, the Cures with Mus musculus [23] amounted to 0. Further, the Highest active dose in the series on Mus musculus [25] stood at 20 mg/kg. This compound yielded a T/C in the series listed under Mus musculus [6] of 225%. Also, the Toxic dose result with L1210 [26] is “Non-toxic”.

Regarding `CCC1(O)C(=O)OCc2c1cc1n(c2=O)Cc2cc3c(NC(=O)CN)cccc3nc2-1.Cl` (racemic), the values for the half-inhibitory concentration (IC50) at DNA topoisomerase 1 [12] and on DNA topoisomerase 1 [20] were more than 30000 nM and 570 nM, respectively. In the series with L1210 [21], this compound registered a KE of 2.95. The compound also showed a Highest active dose with Mus musculus [22] of 20 mg/kg. Also, in the series on L1210 [27], the Toxic dose entry was “Non-toxic”. In the series with Mus musculus [28], the T/C came out at 180%. This compound also yielded a Cures in the series with Mus musculus [23] of 0.

Compound `CCC1(O)C(=O)OCc2c1cc1n(c2=O)Cc2cc3c(O)cccc3nc2-1` (racemic) returned a Highest active dose in the series on Mus musculus [29] of 20 mg/kg. In the series listed under Mus musculus [6], this compound returned a T/C of 134%. In the series listed under Mus musculus [8], this compound returned a Cures of 0. Also, 900 nM corresponded to half-maximal inhibition against DNA topoisomerase 1 [20] (IC50).

In turn, `CC[C@@]1(O)C(=O)OCc2c1cc1n(c2=O)Cc2cc3ccccc3nc2-1` [CAMPTOTHECIN] came in with a Highest active dose in the series on Mus musculus [30] of 12 mg/kg. In the series filed under Mus musculus [4], this compound showed a Toxic dose of 10 mg/kg. Also, the T/C in the series filed under Mus musculus [6] amounted to 250%. In addition, the KE in the series on L1210 [7] was determined as 4.8. The Cures in the series listed under Mus musculus [8] is 1.
